This experiment addresses T1, Muscarinic acetylcholine receptor M2 (Sus scrofa, UniProt P06199).
T1 sequence (P06199 whole entry): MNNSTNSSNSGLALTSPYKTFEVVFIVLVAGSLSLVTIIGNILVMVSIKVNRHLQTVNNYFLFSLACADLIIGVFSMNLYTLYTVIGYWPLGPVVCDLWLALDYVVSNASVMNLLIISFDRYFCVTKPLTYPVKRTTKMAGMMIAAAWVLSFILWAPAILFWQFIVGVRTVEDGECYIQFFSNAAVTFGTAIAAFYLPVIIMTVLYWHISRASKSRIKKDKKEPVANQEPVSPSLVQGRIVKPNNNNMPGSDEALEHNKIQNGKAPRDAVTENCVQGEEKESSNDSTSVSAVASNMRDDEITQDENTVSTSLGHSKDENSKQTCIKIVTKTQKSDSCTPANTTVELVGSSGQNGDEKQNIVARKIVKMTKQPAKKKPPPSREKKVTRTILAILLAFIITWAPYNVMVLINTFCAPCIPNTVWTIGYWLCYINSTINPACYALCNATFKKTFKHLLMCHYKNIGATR
Briefly: Allosteric inhibition of [3H]NMS (N-methyl-scopolamine) dissociation from porcine cardiac Muscarinic acetylcholine receptor M2.
What is called EC50 is the concentration that produces a half-maximal response. The compound `C1=C2C[N+]3(Cc4ccc5ccccc5c4)CCC45c6ccccc6N6[C@@H]7OCC=C8C[N+]9(Cc%10ccc%11ccccc%11c%10)CCC%10%11c%12ccccc%12N([C@H](OC1)[C@@H]([C@H]64)[C@H]2C[C@@H]53)[C@H]%10[C@H]7[C@H]8C[C@@H]%119` (some centres not stated) returned an EC50 of 1.56 µM.

In turn, `C#CC[N+]12CCC34c5ccccc5N5[C@@H]6OCC=C7C[N+]8(CC#C)CCC9%10c%11ccccc%11N([C@@H]%11OCC=C(C1)[C@H](C[C@@H]32)[C@@H]%11[C@H]54)[C@H]9[C@H]6[C@H]7C[C@@H]%108` (some centres not stated) returned an EC50 of 0.004 µM.

Compound `FC(F)(F)c1ccc(C[N+]23CCC45c6ccccc6N6[C@@H]7OCC=C8C[N+]9(Cc%10ccc(C(F)(F)F)cc%10)CCC%10%11c%12ccccc%12N([C@@H]%12OCC=C(C2)[C@H](C[C@@H]43)[C@@H]%12[C@H]65)[C@H]%10[C@H]7[C@H]8C[C@@H]%119)cc1` (some centres not stated) showed an EC50 of 1.75 µM.

Compound `O=[N+]([O-])c1ccc(C[N+]23CCC45c6ccccc6N6[C@@H]7OCC=C8C[N+]9(Cc%10ccc([N+](=O)[O-])cc%10)CCC%10%11c%12ccccc%12N([C@@H]%12OCC=C(C2)[C@H](C[C@@H]43)[C@@H]%12[C@H]65)[C@H]%10[C@H]7[C@H]8C[C@@H]%119)cc1` (some centres not stated) displayed a concentration giving a half-maximal response (EC50) of 0.315 µM.

Regarding `Brc1ccc(C[N+]23CCC45c6ccccc6N6[C@@H]7OCC=C8C[N+]9(Cc%10ccc(Br)cc%10)CCC%10%11c%12ccccc%12N([C@@H]%12OCC=C(C2)[C@H](C[C@@H]43)[C@@H]%12[C@H]65)[C@H]%10[C@H]7[C@H]8C[C@@H]%119)cc1` (some centres not stated), it took 0.507 µM to reach a half-maximal effect (EC50).

On to `C1=C2C[N@+]3(Cc4ccccc4)CC[C@]45c6ccccc6N6[C@@H]7OCC=C8C[N@+]9(Cc%10ccccc%10)CC[C@]%10%11c%12ccccc%12N([C@H](OC1)[C@@H]([C@H]64)[C@H]2C[C@@H]53)[C@H]%10[C@H]7[C@H]8C[C@@H]%119`, for which the EC50 worked out at 0.069 µM.

In turn, `COc1ccc(C[N+]23CCC45c6ccccc6N6[C@@H]7OCC=C8C[N+]9(Cc%10ccc(OC)c(OC)c%10)CCC%10%11c%12ccccc%12N([C@@H]%12OCC=C(C2)[C@H](C[C@@H]43)[C@@H]%12[C@H]65)[C@H]%10[C@H]7[C@H]8C[C@@H]%119)cc1OC` (some centres not stated) showed an EC50 of 0.342 µM.

With `CCC[N+]12CCC34c5ccccc5N5[C@@H]6OCC=C7C[N+]8(CCC)CCC9%10c%11ccccc%11N([C@@H]%11OCC=C(C1)[C@H](C[C@@H]32)[C@@H]%11[C@H]54)[C@H]9[C@H]6[C@H]7C[C@@H]%108` (some centres not stated), the EC50 worked out at 0.03 µM.

On to `C[N+]12CCC34c5ccccc5N5[C@@H]6OCC=C7C[N+]8(C)CCC9%10c%11ccccc%11N([C@@H]%11OCC=C(C1)[C@H](C[C@@H]32)[C@@H]%11[C@H]54)[C@H]9[C@H]6[C@H]7C[C@@H]%108` (some centres not stated), for which it took 0.008 µM to reach a half-maximal effect (EC50).

The compound `C1=C2CN3CCC45c6ccccc6N6[C@@H]7OCC=C8CN9CCC%10%11c%12ccccc%12N([C@H](OC1)[C@@H]([C@H]64)[C@H]2C[C@H]35)[C@H]%10[C@H]7[C@H]8C[C@H]9%11` (some centres not stated) gave an EC50 of 1.19 µM.

Turning to `O=C1c2ccccc2C(=O)N1CCC[N+]12CCC34c5ccccc5N5[C@@H]6OCC=C7C[N+]8(CCCN9C(=O)c%10ccccc%10C9=O)CCC9%10c%11ccccc%11N([C@@H]%11OCC=C(C1)[C@H](C[C@@H]32)[C@@H]%11[C@H]54)[C@H]9[C@H]6[C@H]7C[C@@H]%108` (some centres not stated), the EC50 is 0.376 µM.

Turning to `C=CC[N+]12CCC34c5ccccc5N5[C@@H]6OCC=C7C[N+]8(CC=C)CCC9%10c%11ccccc%11N([C@@H]%11OCC=C(C1)[C@H](C[C@@H]32)[C@@H]%11[C@H]54)[C@H]9[C@H]6[C@H]7C[C@@H]%108` (some centres not stated), the EC50 was 0.003 µM.
